Calls of active or inactive are those of the source. The rule behind the calls is not given here.

Drawing on PubChem BioAssay AID651569 (Sanford-Burnham Center for Chemical Genomics, 2012), this text covers IC50 for 48 molecules.

For this assay, the system named is luminescent cytotoxicity (cell viability) counter-screen. The assay is described as follows: cytotoxicity of Gli-SUFU antagonist hits, dose response, cytotoxicity control for Gli-SUFU antagonist project, cell-based, luminescence, uHTS hits (AID 651569).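 Note: compound exposure lasted overnight before the viability readout.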
Usually IC50 stands for the concentration at which inhibition is half-maximal. Take `COCCn1c(CN2CCC(Cc3ccccc3)CC2)nc2c1c(=O)n(C)c(=O)n2C`: the IC50 is > 20 µM (inactive).

For the molecule `COc1ccc(CN(C)Cc2nc(Cc3cccc(F)c3)no2)c2cccnc12`, the IC50 is > 20 µM (inactive).

Turning to `Cc1cc(/C=C2/SC(=S)N(c3ccc([N+](=O)[O-])cc3)C2=O)c(C)n1-c1cccnc1`, the IC50 was > 20 µM (inactive).

As for `O=C(/C=C/c1ccco1)Nc1ccc(-c2nc3ccccc3[nH]2)cc1`, the IC50 was > 20 µM (inactive).

With `Cc1ccc(C)c(N2CC(O)(c3cccs3)[N+]3=C2CCCC3)c1` (stereo not drawn), the IC50 is > 20 µM (inactive).

As to `CCOc1ccc2[nH]c3c(N4CCN(C(=O)c5ccco5)CC4)ncnc3c2c1`, the IC50 was > 20 µM (inactive).

Consider `CCOc1ccc(S(=O)(=O)NCc2ccncc2)cc1NC(=O)c1ccccc1`, for which the IC50 is > 20 µM (inactive).

Turning to `Cc1cc(C)c(C)c(S(=O)(=O)N2CCN(c3ncnc4ccccc34)CC2)c1C`, the IC50 was > 20 µM (inactive).

`CC(=O)/C(=N\Nc1ccc(Cl)cc1Cl)Sc1cccc2cccnc12`: the IC50 was > 20 µM (inactive).

Consider `Cc1nnsc1C(=O)Nc1ccc(S(=O)(=O)N2CCC(C)CC2)cc1`, for which the IC50 was > 20 µM (inactive).

In the case of `CCCC(C)C(=O)Nc1nc(C)c(-c2csc(Nc3ccc(Cl)cc3)n2)s1` (stereo not drawn), the IC50 was > 20 µM (inactive).

`O=C(Nc1cc2c3c(c1)C1CCCC1CN3CC1CCCC21)c1ccc([N+](=O)[O-])cc1` (stereo not drawn): the IC50 is > 20 µM (inactive).

As to `CC(C)(C)c1ccc(CN2C3=NCCCN3c3ccccc32)cc1`, the IC50 was 19.1 µM.

With `COCCNc1nc2c(c(=O)n(C)c(=O)n2C)n1Cc1cccc(C)c1`, the IC50 was > 20 µM (inactive).

Take `CCCc1c(CC)c(=N)c2ccccc2n1C`: the IC50 is > 20 µM (inactive).

With `Cc1ccc(S(=O)(=O)NCCC2=CCCCC2)cc1C(N)=O`, the IC50 is > 20 µM (inactive).

For the molecule `COc1ccc(C(=O)C[n+]2cc(-c3ccc(OC)cc3)n3c2CCCC3)cc1`, the IC50 was > 20 µM (inactive).

For `Cc1nc2ccccc2c2oc(C(=O)N3CCN(C4CCCCC4)CC3)cc12`, the IC50 was > 20 µM (inactive).

As to `CCCCn1c(CN(C)Cc2ccccc2)nc2c1c(=O)n(C)c(=O)n2C`, the IC50 is > 20 µM (inactive).

For `O=c1c2ccccc2sc2c(CO)ccc(NCCN3CCCCC3)c12`, the IC50 was 19.1 µM.

Consider `O=C(N[C@@H]1C/C=C\C[C@H](CC(=O)N(CCO)Cc2ccccc2)C(=O)N[C@@H](Cc2c[nH]c3ccccc23)COC1=O)OCC1c2ccccc2-c2ccccc21`, for which the IC50 is > 20 µM (inactive).

For the molecule `COc1ccccc1C(=O)NC(=S)/C=C1/N(C)c2ccccc2C1(C)C`, the IC50 was > 20 µM (inactive).

Regarding `Brc1ccc(-[n+]2c(-c3ccccc3)cc(-c3ccccc3)cc2-c2ccccc2)cc1`, the IC50 was > 20 µM (inactive).

As to `Cc1sc2ncnc(NCC(C)(C)N3CCOCC3)c2c1C`, the IC50 was > 20 µM (inactive).

As to `CCC(C)NS(=O)(=O)c1ccc(S(=O)(=O)N2CCCC3(CCCCC3)C2)cc1` (stereo not drawn), the IC50 was > 20 µM (inactive).

`Cc1nc2ncccn2c1-c1csc(Nc2ccc(O)cc2)n1`: the IC50 is > 20 µM (inactive).

Regarding `COc1ccc(NS(=O)(=O)c2ccc(N3CCOCC3)c(N)c2)cc1`, the IC50 was > 20 µM (inactive).

`FC(F)Oc1ccc(-c2c[n+]3c(n2-c2ccccc2)CCCCC3)cc1`: the IC50 was > 20 µM (inactive).

For the molecule `COc1ccc2c(c1)c(C)cc[n+]2Cc1ccccc1`, the IC50 was > 20 µM (inactive).

As to `O=C(C[n+]1cc(-c2ccccc2)n2c1CCCCC2)c1ccc(Cl)cc1`, the IC50 was > 20 µM (inactive).

For `Cc1sc2ncnc(NCC3COc4ccccc4O3)c2c1C` (stereo not drawn), the IC50 was > 20 µM (inactive).

`CCC(C)NC(=O)CCC(=O)OC1O[C@H]2OC3(C)CC[C@H]4[C@H](C)CCC(C1C)C24OO3` (stereo partly drawn): the IC50 is > 20 µM (inactive).

Consider `CC(C)CC(NC(=O)CCCNC(=O)CCC(=O)OC1O[C@H]2OC3(C)CC[C@H]4[C@H](C)CCC(C1C)C24OO3)C(=O)O` (stereo partly drawn), for which the IC50 is > 20 µM (inactive).

As for `CC(C)(C)[C@H]1COC(=O)[C@H](NC(=O)OCC2c3ccccc3-c3ccccc32)C/C=C\C[C@@H](CC(=O)N(CCO)Cc2ccccc2)C(=O)N1`, the IC50 was > 20 µM (inactive).

In the case of `O=C(c1cc2sccc2n1Cc1ccc(F)cc1)N1CCN(c2nc3ccccc3s2)CC1`, the IC50 was > 20 µM (inactive).

For `CCOc1ccc(NS(=O)(=O)c2cccc(C(=O)N3CCN(C/C=C/c4ccccc4)CC3)c2)cc1`, the IC50 is > 20 µM (inactive).

On to `CC(C)(C)OC(=O)N1CCC(c2cc(-c3cccs3)n[nH]2)CC1`, for which the IC50 was > 20 µM (inactive).

`CCCCCCCN1C2=NCCCN2c2ccccc21`: the IC50 is > 20 µM (inactive).

With `CCN(CC)C(=O)c1ccc(S(=O)(=O)N2CCC(c3nc4ccccc4s3)CC2)cc1`, the IC50 is > 20 µM (inactive).

Regarding `CCOc1ccc(-n2c(O)c(/C=N/Nc3nc(C)cc(C)n3)c3ccccc3c2=O)cc1`, the IC50 was > 20 µM (inactive).

For `O=C(Nc1ccccc1)C1=C[C@@H](C2CCCCC2)C[C@@H](OCCCCO)O1`, the IC50 was > 20 µM (inactive).

Turning to `COc1ccc(NS(=O)(=O)c2ccc(N3CCCCC3)c(N)c2)cc1`, the IC50 was > 20 µM (inactive).

For `CCn1c(/C=C/Nc2ccccc2)[n+](CC)c2cc(Cl)c(Cl)cc21`, the IC50 is 9.98 µM.

Consider `CCCCSc1nc2sc3c(c2c(=O)n1-c1ccc(C)cc1)CCN(C)C3`, for which the IC50 was > 20 µM (inactive).

Regarding `Cc1ncoc1C(=O)NC1CCCc2c1cnn2-c1ccc(C(C)(C)C)cc1` (stereo not drawn), the IC50 was > 20 µM (inactive).

For the molecule `COc1ccccc1NS(=O)(=O)c1cccc(C(=O)NC2CCN(Cc3ccccc3)CC2)c1`, the IC50 was > 20 µM (inactive).

As for `c1ccc(C[n+]2cccc(-c3ccccc3)c2)cc1`, the IC50 is > 20 µM (inactive).

`COc1ccccc1CN(Cc1nc2ccccc2c(=O)[nH]1)S(=O)(=O)c1ccc(C)cc1`: the IC50 is > 20 µM (inactive).
